The numbers were not newly measured in US6552066B1, “Protein tyrosine kinase inhibitors for treating osteoarthritis” (priority 1995, dated 2003), which cites them from elsewhere.

The subject of series [1] is progression of osteoarthritis. The note with it: animals; cited from earlier work.
For a further series, the system named is bovine cartilage explant. The note with it: cited from earlier work.
The next series concerns the target protein kinase C gamma (Homo sapiens, UniProt P05129). The following applies: at 100 μM; cited from earlier work.
The target of another series is protein kinase C alpha (Homo sapiens, UniProt P17252). The note with it: at 100 μM; cited from earlier work.
The test system of series [2] is Ca^2+-calmodulin dependent protein kinase II. The note with it: cited from earlier work.
A further series addresses protein kinase C beta (Homo sapiens, UniProt P05771). The note with it: at 100 μm; cited from earlier work.

protein kinase C beta, sequence (P05771 whole entry): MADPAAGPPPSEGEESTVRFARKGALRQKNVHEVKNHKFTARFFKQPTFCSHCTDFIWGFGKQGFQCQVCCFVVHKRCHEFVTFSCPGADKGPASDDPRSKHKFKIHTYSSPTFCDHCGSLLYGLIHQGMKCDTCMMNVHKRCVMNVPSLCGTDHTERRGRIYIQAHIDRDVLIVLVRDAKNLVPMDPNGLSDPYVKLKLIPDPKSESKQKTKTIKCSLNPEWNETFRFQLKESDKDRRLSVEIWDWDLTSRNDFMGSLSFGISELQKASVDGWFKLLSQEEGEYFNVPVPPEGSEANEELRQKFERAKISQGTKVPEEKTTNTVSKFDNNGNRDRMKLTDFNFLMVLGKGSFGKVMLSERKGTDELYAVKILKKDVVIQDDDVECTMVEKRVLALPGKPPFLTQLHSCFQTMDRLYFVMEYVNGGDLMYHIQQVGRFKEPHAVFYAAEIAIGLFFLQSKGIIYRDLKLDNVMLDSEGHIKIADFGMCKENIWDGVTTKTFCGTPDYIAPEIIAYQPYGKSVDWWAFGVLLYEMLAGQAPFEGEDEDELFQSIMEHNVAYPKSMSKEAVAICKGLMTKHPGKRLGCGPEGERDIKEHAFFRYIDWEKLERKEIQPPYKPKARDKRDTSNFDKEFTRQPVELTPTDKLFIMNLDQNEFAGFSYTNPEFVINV

Turning to `NC1=N/C(=C2/CCNC(=O)c3[nH]ccc32)C(=O)N1` [Z-debromohymenialdisine], the progression of osteoarthritis entry in series [1] is listed as “slows the progression of osteoarthritis”. The “inhibition of cartilage degradation in the bovine cartilage explant assay” value in the series with bovine cartilage explant was “inhibit cartilage degradation”.
Regarding `NC1=N/C(=C2/CCNC(=O)c3[nH]ccc32)C(=O)N1` [debromohymenialdisine], the “inhibition of protein kinase C gamma” value on protein kinase C gamma is listed as 108%. Moreover, the “inhibition of protein kinase C alpha” value at protein kinase C alpha was 97%. Besides, in series [2], the “inhibition of Ca2+-calmodulin dependent protein kinase II” value is 94%. In addition, the “inhibition of protein kinase C beta” value at protein kinase C beta is 95%.
